Experimental findings from US20120309798A1, “Tumour Treatment Agents and Method” (Vivolux AB, priority 2009, published 2012) are described below.

What all share (assay type): cell-based
Assay [1] deals with Assorted tumors: one appendix cancer and one pseudomyxomo peritonei. Kind of assay: FMCA, patient tumor samples, assorted tumors. As to conditions: Homo sapiens. From the text:
(§1) Cell culture. Patient tumor samples (98) and preparations (4) of normal peripheral blood mononuclear cells (PBMC), detailed in Table 1, were used to determine the activity of VLX50 and, for comparison, six other cytotoxic drugs chosen to represent different mechanistic classes.
(§2) The tumor samples were obtained by bone marrow/peripheral blood sampling, routine surgery or diagnostic biopsy. Leukemic cells and PBMCs were isolated by 1.077 g ml-1 Ficoll-Paque centrifugation (Larsson et al., 1992). Tumor tissue from solid tumor samples was minced into small pieces and tumor cells were isolated by collagenase dispersion followed by Percoll density gradient centrifugation (Csoka et al., 1994). […] Cell viability was determined by trypan blue exclusion test and the proportion of tumor cells in the preparation was judged by inspection of May-Grunvald-Giemsa stained cytospin slides (FIG. 1a). […]
(§3) Fluorometric Microculture Cytotoxicity Assay. The Fluorometric Microculture Cytotoxicity Assay, FMCA, described in detail previously (Lindhagen et al., 2008), is based on measurement of fluorescence generated from hydrolysis of fluorescein diacetate (FDA) to fluorescein by cells with intact plasma membranes. […] Quality criteria for a successful assay included a mean coefficient of variation of less than 30% in the control and a fluorescence signal in control wells of more than 5 times the blank. […]

A further assay deals with MCF-7 tumor cells. In words: Mode of cell death: time lapse phase contrast microscopy and multiparametric HCS (Arrayscan II). As to the method: Multiparametric high content screening assays. To study the cell death characteristics a multi-parametric high content screening (HCS) assay was used (Cellomics cytotoxicity HitKit™) and an HCS assay for measurement of apoptosis, which has been described in detail previously (Lovborg et al., 2004). The cells (1500 cells/well) were seeded into flat-bottomed 96-well plates (Perkin Elmer Inc., Wellesley, Mass.) and were left to attach before addition of drugs. For the cytotoxicity assay the cytotoxicity HitKit™ reagents (Cellomics Inc., Pittsburgh, Pa., USA) was used according to the manufacturer's instructions. Multi-parameter cytotoxicity HitKit™ contains a nuclear dye, a cell permeability dye, and a lysosomal mass/pH indicator. In the apoptosis assay FAM-DEVD-FMK (part of the CaspaTag Kit, Chemicon, Temecula, Calif.) at a final concentration of 20 μM was added one hour before the end of the drug exposure to stain activated caspase-3 and partly caspase-7. The staining solution was removed and the plates were washed twice with PBS followed by a 30 min fixation in 3.7% formaldehyde and nuclear staining with 10 μM Hoechst 33342 (Sigma). Plates were then washed twice. The plates were centrifuged before each aspiration to avoid loss of cells detached due to toxic stimuli. Processed plates were kept at +4° C. for up to 24 h before analysis. Plates were analyzed using the ArrayScan™ HCS software (Cellomics Inc). The system is a computerized automated fluorescence-imaging microscope that automatically identifies stained cells and reports the intensity and distribution of fluorescence in individual cells. Images were acquired for each fluorescence channel, using suitable filters with 20× objective. In each well at least 800 cells were analyzed. Images and data were stored in a Microsoft SQL database.
Phase contrast microscopy. Time lapse phase contrast microscopy was performed using an automated Incucyte phase contrast microscope. MCF-7 cells (10,000/well) were plated on 24-well ImageLock plates (Essen Instruments, Ann Arbor, Mich.) and cultured in RPMI 1640 media containing 10% fetal bovine serum and antibiotics. The plates were immediately placed into IncuCyte imaging system (Essen Instruments). The chamber is designed to fit into a standard, humidified, CO2 incubator in an atmosphere of 5% CO2, and a moving objective allows the cell culture to be stationary while images are captured at different positions from well to well. Images were collected at hourly intervals starting 30 minutes after addition of the plate to the IncuCyte-FLR chamber. Drug treatment was performed 24 hours after the plates were placed in the Incucyte. Cell density was calculated using the Incucyte software. […]

Assay [2] concerns BNIP and Ndrg-1 expression. Kind of assay: Gene expression analysis of drug treated tumor cell cultures. As to conditions: HIF1 alfa dependent genes. As to the method: Mechanism of action. Mechanistic exploration was performed using gene expression analysis of drug treated tumor cell cultures to generate a drug specific signature. The breast cancer cell line MCF-7 was treated with VLX50 or vehicle (DMSO) and analyzed for gene expression using the Affymetrix U1300plus chip. […] This query signature was subsequently submitted to the GSEA and the Connectivity map databases and strong connections to hypoxia inducible factor (HIF1 alfa) and iron chelators were retrieved. […] The mechanism was confirmed by direct measurements of drug induced decrease in intracellular iron concentration (FIG. 6b).

The test system of assay [3] is CML (Chronic Myelocytic Leukemia) patient tumor cells. In words: FMCA, patient tumor samples, CML. The settings on record: Homo sapiens.
Excerpt: as §1, §2, §3

The test system of assay [4] is normal peripheral blood mononuclear cells (PBMC). Kind of assay: FMCA, normal peripheral blood mononuclear cells. As to conditions: Homo sapiens.
Excerpt: as §1, §2, §3

Where two headings read alike, the source gives them in different places.

What is called IC50 is the point on the concentration scale where inhibition reaches its midpoint.

`COCCCNC(=S)N/N=C\c1ccccn1` [VLX50, N1-(3-methoxypropyl)-2-(pyridylmethylidene)-hydrazine-1-carbothioamide]: the IC50 is 7.8 µM in assay [1] (n=2, 72 h FMCA, read-out: Median IC50); 1.6 to 13.3 µM in assay [1] (range over n=2 samples, read-out: IC50 Range); 5.13 µM in assay [3] (n=3, 72 h FMCA, read-out: Median IC50); 2.1 to 6.42 µM in assay [3] (range over n=3 samples, read-out: IC50 Range); 8.92 µM in assay [4] (n=4, 72 h FMCA, read-out: Median IC50); 2.88 to 13.3 µM in assay [4] (range over n=4 samples, read-out: IC50 Range). Besides, the Caspase-3 activity entry with MCF-7 tumor cells (MCF-7, 48-72 h) is reported as “increase”. Further, the Cell density entry in the assay on MCF-7 tumor cells (MCF-7, 48-72 h) was “gradual decrease”. Further, the DNA fragmentation result in the assay on MCF-7 tumor cells (MCF-7, 48-72 h) is given as “increase”. In the assay on MCF-7 tumor cells (MCF-7, 24 h), the “Effect on growth and viability” value is “little or no effect”. In addition, in assay [2], the “Expression of BNIP and Ndrg-1” value is “significantly increasing”.
